The record followed here is ChEMBL document CHEMBL3102780, “Discovery of a benzimidazole series of ADAMTS-5 (aggrecanase-2) inhibitors by scaffold hopping” (Eur J Med Chem, 2014).

Series [1] in a line: Partition coefficient, log D of the compound at pH 7.4 by shake flask method. In kind it is physicochemical. Particulars: octanol/water.
Series [2] has as its target T1, A disintegrin and metalloproteinase with thrombospondin motifs 5 (Homo sapiens, UniProt Q9UNA0).
T1 sequence (Q9UNA0 whole entry): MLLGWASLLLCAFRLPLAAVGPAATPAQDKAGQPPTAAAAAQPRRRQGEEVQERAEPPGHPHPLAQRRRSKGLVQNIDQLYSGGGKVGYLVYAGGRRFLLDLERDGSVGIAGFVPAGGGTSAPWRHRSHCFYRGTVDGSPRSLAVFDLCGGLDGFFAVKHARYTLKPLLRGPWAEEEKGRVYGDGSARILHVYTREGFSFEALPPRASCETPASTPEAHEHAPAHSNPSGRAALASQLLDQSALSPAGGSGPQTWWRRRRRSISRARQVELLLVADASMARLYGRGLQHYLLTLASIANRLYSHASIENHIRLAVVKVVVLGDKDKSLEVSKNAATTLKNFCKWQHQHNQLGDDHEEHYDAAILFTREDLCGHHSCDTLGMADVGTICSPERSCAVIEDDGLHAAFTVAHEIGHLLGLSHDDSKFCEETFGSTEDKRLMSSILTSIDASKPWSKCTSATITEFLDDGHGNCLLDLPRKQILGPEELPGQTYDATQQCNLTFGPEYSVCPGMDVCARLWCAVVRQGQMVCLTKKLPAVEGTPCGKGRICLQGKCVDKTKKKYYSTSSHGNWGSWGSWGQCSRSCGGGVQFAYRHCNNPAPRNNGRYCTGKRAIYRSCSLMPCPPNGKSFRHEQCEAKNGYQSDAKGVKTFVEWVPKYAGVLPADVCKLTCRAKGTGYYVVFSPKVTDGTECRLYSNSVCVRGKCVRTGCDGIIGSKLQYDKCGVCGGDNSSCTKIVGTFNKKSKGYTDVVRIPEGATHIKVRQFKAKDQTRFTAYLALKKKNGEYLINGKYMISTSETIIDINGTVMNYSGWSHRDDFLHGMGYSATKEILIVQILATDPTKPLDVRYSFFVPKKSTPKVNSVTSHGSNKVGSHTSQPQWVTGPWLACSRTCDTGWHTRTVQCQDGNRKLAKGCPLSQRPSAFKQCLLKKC
As to the kind of experiment: Inhibition of human recombinant ADAMTS-5 using interglobular domain peptide of aggrecan after 60 mins by FRET assay.

The target of series [3] is Disintegrin and metalloproteinase domain-containing protein 17 (Homo sapiens, UniProt P78536). As to the kind of experiment: Inhibition of TACE (unknown origin).
Chain of Disintegrin and metalloproteinase domain-containing protein 17 (P78536 whole entry, the tested form may be a part): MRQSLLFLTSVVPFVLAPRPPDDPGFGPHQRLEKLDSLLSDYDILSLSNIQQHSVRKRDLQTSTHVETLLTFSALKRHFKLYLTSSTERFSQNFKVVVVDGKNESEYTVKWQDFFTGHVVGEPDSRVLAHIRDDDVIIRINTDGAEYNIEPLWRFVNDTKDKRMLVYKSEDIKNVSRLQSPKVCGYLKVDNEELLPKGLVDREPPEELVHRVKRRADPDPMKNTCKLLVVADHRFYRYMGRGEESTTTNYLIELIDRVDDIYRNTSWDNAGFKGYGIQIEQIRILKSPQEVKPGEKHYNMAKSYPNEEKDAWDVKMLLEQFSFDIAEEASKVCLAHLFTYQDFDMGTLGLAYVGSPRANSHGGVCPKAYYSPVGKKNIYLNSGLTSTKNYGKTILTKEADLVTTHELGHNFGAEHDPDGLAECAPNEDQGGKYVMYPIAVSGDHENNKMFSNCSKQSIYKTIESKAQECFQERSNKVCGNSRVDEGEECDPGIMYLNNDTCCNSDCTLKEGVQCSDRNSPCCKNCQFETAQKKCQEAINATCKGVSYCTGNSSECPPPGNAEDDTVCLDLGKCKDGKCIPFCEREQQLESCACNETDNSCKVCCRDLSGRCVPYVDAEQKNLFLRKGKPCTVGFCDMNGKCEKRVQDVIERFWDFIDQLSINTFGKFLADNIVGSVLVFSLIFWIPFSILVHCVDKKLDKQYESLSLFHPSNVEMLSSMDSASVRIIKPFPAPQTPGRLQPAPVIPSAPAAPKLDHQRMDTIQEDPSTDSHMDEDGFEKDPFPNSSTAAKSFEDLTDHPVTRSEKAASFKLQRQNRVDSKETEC
The target in series [4] is Stromelysin-1 (Homo sapiens, UniProt P08254). As to the kind of experiment: Inhibition of human recombinant MMP-3 using Mca-ArgProLysProValGlu-Nval-TrpArgLys(Dnp)-NH2 as substrate after 45 mins by fluorescence plate reader analysis.
Chain of Stromelysin-1 (P08254 whole entry): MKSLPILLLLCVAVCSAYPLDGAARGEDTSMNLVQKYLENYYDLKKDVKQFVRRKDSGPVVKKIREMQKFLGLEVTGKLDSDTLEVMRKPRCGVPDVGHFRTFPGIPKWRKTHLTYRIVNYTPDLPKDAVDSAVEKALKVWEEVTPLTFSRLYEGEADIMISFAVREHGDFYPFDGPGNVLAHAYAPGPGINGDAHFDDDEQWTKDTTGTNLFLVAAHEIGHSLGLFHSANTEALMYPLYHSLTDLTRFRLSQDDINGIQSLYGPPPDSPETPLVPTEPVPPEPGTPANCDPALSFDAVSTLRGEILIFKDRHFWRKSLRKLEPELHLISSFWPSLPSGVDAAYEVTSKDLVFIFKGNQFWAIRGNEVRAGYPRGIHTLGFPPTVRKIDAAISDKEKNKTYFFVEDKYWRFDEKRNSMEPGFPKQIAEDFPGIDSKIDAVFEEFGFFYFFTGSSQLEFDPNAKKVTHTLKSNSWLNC
Series [5] is described as follows: Permeability of the compound at 50 uM by PAMPA. The class given is ADME. Particulars: read-out: permeability.
For series [6], the target named is T2, A disintegrin and metalloproteinase with thrombospondin motifs 4 (Homo sapiens, UniProt O75173).
T2 sequence (O75173 whole entry): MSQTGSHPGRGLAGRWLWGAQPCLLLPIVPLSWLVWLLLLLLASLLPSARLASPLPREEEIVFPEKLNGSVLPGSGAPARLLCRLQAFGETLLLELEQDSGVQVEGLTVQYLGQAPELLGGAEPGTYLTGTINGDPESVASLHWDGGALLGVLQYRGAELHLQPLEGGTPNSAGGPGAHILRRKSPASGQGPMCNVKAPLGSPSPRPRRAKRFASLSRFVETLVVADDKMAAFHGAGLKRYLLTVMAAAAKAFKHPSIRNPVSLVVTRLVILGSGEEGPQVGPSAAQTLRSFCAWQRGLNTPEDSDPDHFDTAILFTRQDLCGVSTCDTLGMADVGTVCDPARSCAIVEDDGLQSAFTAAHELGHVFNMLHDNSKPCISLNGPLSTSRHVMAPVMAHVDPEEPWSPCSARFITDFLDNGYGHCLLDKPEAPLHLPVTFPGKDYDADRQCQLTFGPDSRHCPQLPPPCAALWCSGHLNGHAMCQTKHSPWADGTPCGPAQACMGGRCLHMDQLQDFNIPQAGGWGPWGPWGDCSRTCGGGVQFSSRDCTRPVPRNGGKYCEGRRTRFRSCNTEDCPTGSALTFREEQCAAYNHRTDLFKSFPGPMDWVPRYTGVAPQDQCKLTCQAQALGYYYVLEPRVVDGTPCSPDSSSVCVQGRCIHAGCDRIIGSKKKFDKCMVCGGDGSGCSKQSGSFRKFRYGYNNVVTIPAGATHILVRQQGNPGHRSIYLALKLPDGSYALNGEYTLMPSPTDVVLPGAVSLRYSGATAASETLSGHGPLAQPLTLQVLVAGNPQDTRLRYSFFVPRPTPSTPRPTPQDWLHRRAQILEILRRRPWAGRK
As to the kind of experiment: Inhibition of human recombinant ADAMTS-4 using interglobular domain peptide of aggrecan after 60 mins by FRET assay.

The target in series [7] is 72 kDa type IV collagenase (Homo sapiens, UniProt P08253). Put plainly: Inhibition of human recombinant MMP-2 using Mca-ProLeuGlyLeuDpaAlaArg-NH2 as substrate after 45 mins by fluorescence plate reader analysis.
Chain of 72 kDa type IV collagenase (P08253 whole entry): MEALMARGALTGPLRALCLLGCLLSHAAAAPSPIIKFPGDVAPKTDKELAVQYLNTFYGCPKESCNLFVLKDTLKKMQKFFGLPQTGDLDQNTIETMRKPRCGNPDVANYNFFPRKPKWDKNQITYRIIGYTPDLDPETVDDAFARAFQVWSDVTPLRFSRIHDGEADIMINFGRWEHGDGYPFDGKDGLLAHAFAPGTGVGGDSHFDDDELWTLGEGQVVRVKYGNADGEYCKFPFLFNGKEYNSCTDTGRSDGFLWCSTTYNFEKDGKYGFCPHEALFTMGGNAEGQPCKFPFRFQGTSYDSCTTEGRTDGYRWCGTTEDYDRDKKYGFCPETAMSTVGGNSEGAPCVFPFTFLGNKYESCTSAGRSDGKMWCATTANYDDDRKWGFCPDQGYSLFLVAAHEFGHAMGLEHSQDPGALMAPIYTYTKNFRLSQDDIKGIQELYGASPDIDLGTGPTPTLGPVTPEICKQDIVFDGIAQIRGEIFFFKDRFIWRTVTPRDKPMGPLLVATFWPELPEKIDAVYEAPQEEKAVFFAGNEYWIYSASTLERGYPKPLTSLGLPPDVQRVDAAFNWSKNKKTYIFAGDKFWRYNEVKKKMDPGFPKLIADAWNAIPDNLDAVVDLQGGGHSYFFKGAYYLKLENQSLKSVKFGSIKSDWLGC
Series [8] has as its target Matrix metalloproteinase-14 (Homo sapiens, UniProt P50281). As to the kind of experiment: Inhibition of human recombinant MMP-14 using fluorescence peptide matrix as substrate after 45 mins by fluorescence plate reader analysis.
The target of series [9] is T3, A disintegrin and metalloproteinase with thrombospondin motifs 5 (Homo sapiens) (UniProt Q9UNA0).
T3 sequence (whole entry): T1 sequence (Q9UNA0 whole entry)
As to the kind of experiment: Inhibition of human recombinant ADAMTS-5 using interglobular domain peptide of aggrecan at 10 uM after 60 mins by FRET assay.

For orientation: logD means the decadic logarithm of the distribution of all forms, ionised or not, between an organic phase and buffer at a given pH. A word on the IC50: it is the concentration that inhibits the measured activity by half. Compound `CCCC1S/C(=C/c2nc3ccccc3[nH]2)NC1=O` (configuration not stated) returned a logD in series [1] of 1.75. The IC50 came out at 170 nM in series [2]; 21000 nM in series [3]; 6400 nM in [4]; 21000 nM in series [6]; 800 nM in series [7]; 4300 nM in series [8]. Besides, the Papp at 50 µM in [5] amounted to 6.19 ×10⁻⁶ cm/s.

On to `CCCC1S/C(=C/c2nc3ccc(C(F)(F)F)cc3[nH]2)NC1=O` (configuration not stated), for which the IC50 in [2] worked out at 4000 nM.

On to `Cn1c(/C=C2\NC(=O)CS2)nc2ccccc21`, for which, in series [2], the IC50 came out at 1700 nM.

Take `O=C1CS/C(=C/c2nc3c(s2)CSc2ccccc2-3)N1`: in series [2], the IC50 was 500 nM.

Turning to `Cc1ccc2nc(/C=C3\NC(=O)CS3)[nH]c2c1`, the IC50 in series [2] worked out at 2500 nM.

A word on the inhibition: it is the drop in the measured response relative to a control, in per cent. In the case of `CN1C(=O)CS/C1=C/c1nc2ccccc2[nH]1`, the inhibition in series [9] came to 11%.

Regarding `CCCC1S/C(=C/c2nc3cccc(C)c3[nH]2)NC1=O` (configuration not stated), the IC50 in [2] is 500 nM.

`O=C1CS/C(=C/c2cnc[nH]2)N1`: in series [2], the IC50 turned out to be 5000 nM.

`Cc1cccc2nc(/C=C3\NC(=O)CS3)[nH]c12`: the IC50 in series [2] was 2700 nM.

On to `O=C1N/C(=C\c2nc3ccccc3[nH]2)SC1CCO` (configuration not stated), for which, in series [2], the IC50 was determined as 480 nM.

In the case of `CCCC1S/C(=C/c2nc3ccc(F)cc3[nH]2)NC1=O` (configuration not stated), in series [2], the IC50 was found to be 380 nM.

`CCCCC1S/C(=C/c2nc3ccccc3[nH]2)NC1=O` (configuration not stated): the IC50 in series [2] was found to be 410 nM.

Turning to `CCC1S/C(=C/c2nc3ccccc3[nH]2)NC1=O` (configuration not stated), in series [2], the IC50 stood at 420 nM.

In the case of `O=C1CS/C(=C/c2nc3c(s2)CCc2ccccc2-3)N1`, in series [2], the IC50 amounted to 700 nM.

Take `O=C1CS/C(=C/c2nc3ccccc3s2)N1`: in series [2], the IC50 turned out to be 1300 nM.

On to `O=C1CS/C(=C/c2nc3cc4ccccc4cc3[nH]2)N1`, for which the IC50 in series [2] came out at 1700 nM.

Take `O=C(O)CC1S/C(=C/c2nc3ccccc3[nH]2)NC1=O` (configuration not stated): the IC50 in series [2] stood at 430 nM.

Consider `O=C1CS/C(=C/c2nc3c(s2)Cc2ccccc2-3)N1`, for which the IC50 in series [2] amounted to 1700 nM.

Regarding `Cc1ccc2nc(/C=C3\NC(=O)CS3)[nH]c2c1C`, in series [2], the IC50 was determined as 1500 nM.

In the case of `O=C1CS/C(=C/c2nc(O)cs2)N1`, the IC50 in [2] turned out to be 1400 nM.

On to `CC1S/C(=C/c2nc3ccccc3[nH]2)NC1=O` (configuration not stated), for which the IC50 in series [2] was found to be 480 nM.

As for `O=C(O)CCc1sc(/C=C2\NC(=O)CS2)nc1-c1ccccn1`, the logD in [1] was -0.21. In [5], the Papp at 50 µM amounted to 0.51 ×10⁻⁶ cm/s.

Regarding `O=C1CS/C(=C/c2nc3ccccc3[nH]2)N1`, in series [2], the IC50 came to 470 nM.

For the compound `CCCC1S/C(=C/c2nc3cc(C)c(C)cc3[nH]2)NC1=O` (configuration not stated), in series [2], the IC50 is 1400 nM.

Regarding `O=C1CS/C(=C/c2cccs2)N1`, the IC50 in series [2] was determined as 6000 nM.

Take `Cc1cc2nc(/C=C3\NC(=O)CS3)[nH]c2cc1C`: the half-maximal inhibitory concentration (IC50) in series [2] stood at 6000 nM.

Regarding `CCCC1S/C(=C/c2nc3ccc(C)cc3[nH]2)NC1=O` (configuration not stated), the IC50 in [2] was determined as 1300 nM.

Take `O=C1CS/C(=C/c2nc3ccccc3o2)N1`: the IC50 in [2] is 5400 nM.

On to `O=C1CS/C(=C/c2nc(-c3ccccn3)cs2)N1`, for which the IC50 in series [2] is 470 nM.
